Experimental data as given in PMC10436550, “Subacute toxicity evaluations of LPM3480392 in rats, a full µ-opioid receptor biased agonist” (Frontiers in Pharmacology, 2023).

System: Sprague Dawley (SD) rats
Test: Organ weight and ratios, 4-week subacute toxicity study
Assay type: in vivo, rat
Protocol: Complete gross necropsies were conducted on all surviving animals at the end of treatment (the day after the last dosing) and recovery periods. The following selected organs were weighed and evaluated in terms of organ/body or organ/brain weight ratios: brain, kidneys, adrenals, testes, ovaries, uterus, epididymides, thymus, spleen, heart and liver. Paired organs were weighed together. Organ-to-body weight ratio = Organ weight(g)/Body weight(g) × 100%, and Organ-to-brain weight ratio = Organ weight(g)/Brain weight(g) × 100%.

[1] = female rats, 0.6 mg/kg/day, End of dosing phase
[2] = female rats, 0.6 mg/kg/day, End of recovery phase
[3] = female rats, 1.2 mg/kg/day, End of dosing phase
[4] = female rats, 1.2 mg/kg/day, End of recovery phase
[5] = female rats, 2.4 mg/kg/day, End of dosing phase
[6] = female rats, 2.4 mg/kg/day, End of recovery phase
[7] = male rats, 0.6 mg/kg/day, End of dosing phase
[8] = male rats, 0.6 mg/kg/day, End of recovery phase

Fc1ccc([C@]2(CCNCc3cccc(Cl)c3)CCO[C@]3(CCOC3)C2)nc1 [LPM3480392]
Organ weight, Brain [1]: 1.862 ± 0.102 g | Organ weight, Kidney [1]: 1.501 ± 0.123 g | Organ weight, Spleen [1]: 0.646 ± 0.159 g | Organ weight, Thymus [1]: 0.402 ± 0.053 g | Organ-to-body weight ratio, Brain [1]: 0.875 ± 0.063 % | Organ-to-body weight ratio, Kidney [1]: 0.704 ± 0.037% | Organ-to-body weight ratio, Spleen [1]: 0.301 ± 0.065% | Organ-to-body weight ratio, Thymus [1]: 0.189 ± 0.028% | Organ-to-brain weight ratio, Adrenal gland [1]: 3.21 ± 0.59% | Organ-to-brain weight ratio, Kidney [1]: 80.71 ± 6.29% | Organ-to-brain weight ratio, Spleen [1]: 34.73 ± 8.54% | Organ-to-brain weight ratio, Thymus [1]: 21.61 ± 3.02% | Terminal BW [1]: 213.5 ± 15.3 g | Organ weight, Brain [2]: 2.018 ± 0.046 g | Organ weight, Kidney [2]: 1.626 ± 0.142 g | Organ weight, Spleen [2]: 0.530 ± 0.085 g | Organ weight, Thymus [2]: 0.308 ± 0.055 g | Organ-to-body weight ratio, Brain [2]: 0.804 ± 0.031% | Organ-to-body weight ratio, Kidney [2]: 0.647 ± 0.043% | Organ-to-body weight ratio, Spleen [2]: 0.210 ± 0.030% | Organ-to-body weight ratio, Thymus [2]: 0.122 ± 0.019% | Organ-to-brain weight ratio, Adrenal gland [2]: 2.91 ± 0.20% | Organ-to-brain weight ratio, Kidney [2]: 80.51 ± 6.21% | Organ-to-brain weight ratio, Spleen [2]: 26.23 ± 4.03% | Organ-to-brain weight ratio, Thymus [2]: 15.21 ± 2.43% | Terminal BW [2]: 251.2 ± 9.7 g | Organ weight, Brain [3]: 1.916 ± 0.096 g | Organ weight, Kidney [3]: 1.518 ± 0.127 g | Organ weight, Spleen [3]: 0.637 ± 0.078 g | Organ weight, Thymus [3]: 0.380 ± 0.046 g | Organ-to-body weight ratio, Brain [3]: 0.881 ± 0.039 % | Organ-to-body weight ratio, Kidney [3]: 0.697 ± 0.044% | Organ-to-body weight ratio, Spleen [3]: 0.294 ± 0.042% | Organ-to-body weight ratio, Thymus [3]: 0.175 ± 0.026% | Organ-to-brain weight ratio, Adrenal gland [3]: 2.89 ± 0.37% | Organ-to-brain weight ratio, Kidney [3]: 79.14 ± 3.61% | Organ-to-brain weight ratio, Spleen [3]: 33.29 ± 3.96% | Organ-to-brain weight ratio, Thymus [3]: 19.90 ± 2.88% | Terminal BW [3]: 217.8 ± 15.0 g | Organ weight, Brain [4]: 1.990 ± 0.086 g | Organ weight, Kidney [4]: 1.567 ± 0.165 g | Organ weight, Spleen [4]: 0.574 ± 0.056 g | Organ weight, Thymus [4]: 0.297 ± 0.056 g | Organ-to-body weight ratio, Brain [4]: 0.802 ± 0.031% | Organ-to-body weight ratio, Kidney [4]: 0.630 ± 0.037% | Organ-to-body weight ratio, Spleen [4]: 0.231 ± 0.016% | Organ-to-body weight ratio, Thymus [4]: 0.120 ± 0.023% | Organ-to-brain weight ratio, Adrenal gland [4]: 2.68 ± 0.38% | Organ-to-brain weight ratio, Kidney [4]: 78.65 ± 6.18% | Organ-to-brain weight ratio, Spleen [4]: 28.83 ± 2.34% | Organ-to-brain weight ratio, Thymus [4]: 14.89 ± 2.48% | Terminal BW [4]: 248.4 ± 12.5 g | Organ weight, Brain [5]: 1.958 ± 0.105 g | Organ weight, Kidney [5]: 1.549 ± 0.122 g | Organ weight, Spleen [5]: 0.616 ± 0.144 g | Organ weight, Thymus [5]: 0.339 ± 0.075 g | Organ-to-body weight ratio, Brain [5]: 0.943 ± 0.055% | Organ-to-body weight ratio, Kidney [5]: 0.746 ± 0.049% | Organ-to-body weight ratio, Spleen [5]: 0.294 ± 0.049% | Organ-to-body weight ratio, Thymus [5]: 0.162 ± 0.031% | Organ-to-brain weight ratio, Adrenal gland [5]: 2.88 ± 0.24% | Organ-to-brain weight ratio, Kidney [5]: 79.23 ± 6.43% | Organ-to-brain weight ratio, Spleen [5]: 31.37 ± 6.57% | Organ-to-brain weight ratio, Thymus [5]: 17.23 ± 3.33% | Terminal BW [5]: 208.0 ± 14.6 g | Organ weight, Brain [6]: 2.075 ± 0.093 g | Organ weight, Kidney [6]: 1.554 ± 0.133 g | Organ weight, Spleen [6]: 0.502 ± 0.064 g | Organ weight, Thymus [6]: 0.331 ± 0.135 g | Organ-to-body weight ratio, Brain [6]: 0.856 ± 0.093% | Organ-to-body weight ratio, Kidney [6]: 0.637 ± 0.024% | Organ-to-body weight ratio, Spleen [6]: 0.206 ± 0.027% | Organ-to-body weight ratio, Thymus [6]: 0.135 ± 0.047% | Organ-to-brain weight ratio, Adrenal gland [6]: 2.71 ± 0.42% | Organ-to-brain weight ratio, Kidney [6]: 75.09 ± 8.25% | Organ-to-brain weight ratio, Spleen [6]: 24.11 ± 2.01% | Organ-to-brain weight ratio, Thymus [6]: 16.14 ± 7.16% | Terminal BW [6]: 244.2 ± 24.2 g | Organ weight, Adrenal gland [7]: 0.052 ± 0.011 g | Organ weight, Brain [7]: 2.094 ± 0.050 g | Organ weight, Epididymis [7]: 0.977 ± 0.089 g | Organ weight, Heart [7]: 1.289 ± 0.102 g | Organ weight, Liver [7]: 8.125 ± 0.587 g | Organ weight, Spleen [7]: 0.741 ± 0.128 g | Organ weight, Thymus [7]: 0.477 ± 0.062 g | Organ-to-body weight ratio, Adrenal gland [7]: 0.016 ± 0.003% | Organ-to-body weight ratio, Brain [7]: 0.650 ± 0.035% | Organ-to-body weight ratio, Epididymis [7]: 0.303 ± 0.028% | Organ-to-body weight ratio, Heart [7]: 0.399 ± 0.028 % | Organ-to-body weight ratio, Liver [7]: 2.516 ± 0.108% | Organ-to-body weight ratio, Spleen [7]: 0.229 ± 0.030% | Organ-to-body weight ratio, Thymus [7]: 0.147 ± 0.016% | Organ-to-brain weight ratio, Adrenal gland [7]: 2.50 ± 0.58% | Organ-to-brain weight ratio, Epididymis [7]: 46.67 ± 4.12% | Organ-to-brain weight ratio, Heart [7]: 61.61 ± 5.76% | Organ-to-brain weight ratio, Liver [7]: 388.28 ± 30.51% | Organ-to-brain weight ratio, Spleen [7]: 35.42 ± 6.22% | Organ-to-brain weight ratio, Thymus [7]: 22.74 ± 2.77% | Terminal BW [7]: 322.9 ± 16.9 g | Organ weight, Adrenal gland [8]: 0.057 ± 0.008 g | Organ weight, Brain [8]: 2.262 ± 0.071 g | Organ weight, Epididymis [8]: 1.432 ± 0.140 g
